These compounds were tested against PRS (prolyl-tRNA synthetase) protein, PRS portion of EPRS (Homo sapiens (Human), UniProt P07814) (assay: PRS enzyme activity inhibition experiment ([3H]proline, liquid scintillation)). Conditions: purified PRS protein, 37° C. for 5 to 10 minutes.
Assay type: biochemical
Procedure, shortened: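 Values are % inhibition or IC50 ranges (A ≤100 nM, B 100–500 nM, C ≥500 nM) from [3H]proline incorporation measured by liquid scintillation. PRS portion of human EPRS, reacted 5–10 min at 37 °C in pH 7.4 phosphate buffer containing 5 mM ATP and tRNA, compound at 1 μM.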

Chain of PRS (prolyl-tRNA synthetase) protein, PRS portion of EPRS (P07814 1007-1512): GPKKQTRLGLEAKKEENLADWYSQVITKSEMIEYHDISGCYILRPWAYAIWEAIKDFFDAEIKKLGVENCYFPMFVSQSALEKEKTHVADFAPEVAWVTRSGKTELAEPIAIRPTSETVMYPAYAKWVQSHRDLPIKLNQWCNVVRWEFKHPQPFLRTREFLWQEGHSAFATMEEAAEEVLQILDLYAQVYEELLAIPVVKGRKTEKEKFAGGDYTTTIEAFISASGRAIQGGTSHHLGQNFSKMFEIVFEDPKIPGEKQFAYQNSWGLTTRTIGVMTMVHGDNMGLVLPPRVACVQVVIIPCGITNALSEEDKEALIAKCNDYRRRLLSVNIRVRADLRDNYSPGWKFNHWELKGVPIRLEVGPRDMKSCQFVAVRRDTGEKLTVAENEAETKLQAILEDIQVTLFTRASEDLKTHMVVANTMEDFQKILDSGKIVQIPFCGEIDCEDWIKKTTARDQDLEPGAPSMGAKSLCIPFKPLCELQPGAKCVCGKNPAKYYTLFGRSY

Row | SMILES | IC50
1 | Cc1cc2ncn(C/C=C/[C@H]3NCCC[C@@H]3O)c2cc1C [Example 169, (2R,3S)-2-((E)-3-(5,6-dimethyl-1H-benzo[d]imidazol-1-yl)prop-1-en-1-yl)piperidin-3-ol] | ≥ 0.5 µM
2 | O[C@H]1CCCN[C@@H]1/C=C/Cn1cnc2cc(Br)c(Br)cc21 [Example 170, (2R,3S)-2-((E)-3-(5,6-dibromo-1H-benzo[d]imidazol-1-yl)prop-1-en-1-yl)piperidin-3-ol] | 0.1 to 0.5 µM
3 | O[C@H]1CCCN[C@@H]1/C=C/Cn1cnc2cc(F)c(F)cc21 [Example 171, (2R,3S)-2-((E)-3-(5,6-difluoro-1H-benzo[d]imidazol-1-yl)prop-1-en-1-yl)piperidin-3-ol] | ≥ 0.5 µM
4 | Cc1ccc2c(ncn2C/C=C/[C@H]2NCCC[C@@H]2O)c1C [Example 172, (2R,3S)-2-((E)-3-(4,5-dimethyl-1H-benzo[d]imidazol-1-yl)prop-1-en-1-yl)piperidin-3-ol] | ≥ 0.5 µM
5 | Cc1c(Cl)ccc2c1ncn2C/C=C/[C@H]1NCCC[C@@H]1O [Example 173, (2R,3S)-2-((E)-3-(5-chloro-4-methyl-1H-benzo[d]imidazol-1-yl)prop-1-en-1-yl)piperidin-3-ol] | 0.1 to 0.5 µM
6 | O[C@H]1CCCN[C@@H]1/C=C/Cn1cnc2c(Cl)c(Cl)ccc21 [Example 174, (2R,3S)-2-((E)-3-(4,5-dichloro-1H-benzo[d]imidazol-1-yl)prop-1-en-1-yl)piperidin-3-ol] | ≤ 0.1 µM
7 | Cc1ccc2c(ncn2C/C=C/[C@H]2NCCC[C@@H]2O)c1Cl [Example 175, (2R,3S)-2-((E)-3-(4-chloro-5-methyl-1H-benzo[d]imidazol-1-yl)prop-1-en-1-yl)piperidin-3-ol] | 0.1 to 0.5 µM
8 | O=[N+]([O-])c1c(Br)ccc2c1ncn2C/C=C/[C@H]1NCCC[C@@H]1O [Example 176, (2R,3S)-2-((E)-3-(5-bromo-4-nitro-1H-benzo[d]imidazol-1-yl)prop-1-en-1-yl)piperidin-3-ol] | ≥ 0.5 µM
9 | O=[N+]([O-])c1c(Br)ccc2ncn(C/C=C/[C@H]3NCCC[C@@H]3O)c12 [Example 177, (2R,3S)-2-((E)-3-(6-bromo-7-nitro-1H-benzo[d]imidazol-1-yl)prop-1-en-1-yl)piperidin-3-ol] | ≥ 0.5 µM
10 | O=[N+]([O-])c1ccc2c(ncn2C/C=C/[C@H]2NCCC[C@@H]2O)c1Cl [Example 178, (2R,3S)-2-((E)-3-(4-chloro-5-nitro-1H-benzo[d]imidazol-1-yl)prop-1-en-1-yl)piperidin-3-ol] | 0.1 to 0.5 µM
11 | O[C@H]1CCCN[C@@H]1/C=C/Cn1cnc2c(F)cc(F)cc21 [Example 179, (2R,3S)-2-((E)-3-(4,6-difluoro-1H-benzo[d]imidazol-1-yl)prop-1-en-1-yl)piperidin-3-ol] | 0.1 to 0.5 µM
12 | Cc1cc(Cl)cc2c1ncn2C/C=C/[C@H]1NCCC[C@@H]1O [Example 180, (2R,3S)-2-((E)-3-(6-chloro-4-methyl-1H-benzo[d]imidazol-1-yl)prop-1-en-1-yl)piperidin-3-ol] | 0.1 to 0.5 µM
13 | O[C@H]1CCCN[C@@H]1/C=C/Cn1cnc2cc(C(F)(F)F)cc(Cl)c21 [Example 181, (2R,3S)-2-((E)-3-(7-chloro-5-(trifluoromethyl)-1H-benzo[d]imidazol-1-yl)prop-1-en-1-yl)piperidin-3-ol] | 0.1 to 0.5 µM
14 | O[C@H]1CCCN[C@@H]1/C=C/Cn1cnc2cc(Cl)cc(Cl)c21 [Example 182, (2R,3S)-2-((E)-3-(5,7-dichloro-1H-benzo[d]imidazol-1-yl)prop-1-en-1-yl)piperidin-3-ol] | ≤ 0.1 µM
15 | O[C@H]1CCCN[C@@H]1/C=C/Cn1cnc2cc(Cl)cc(F)c21 [Example 183, (2R,3S)-2-((E)-3-(5-chloro-7-fluoro-1H-benzo[d]imidazol-1-yl)prop-1-en-1-yl)piperidin-3-ol] | 0.1 to 0.5 µM
16 | O[C@H]1CCCN[C@@H]1/C=C/Cn1cnc2nc(Br)ccc21 [Example 184, (2R,3S)-2-((E)-3-(5-bromo-1H-imidazo[4,5-b]pyridin-1-yl)prop-1-en-1-yl)piperidin-3-ol] | ≥ 0.5 µM
17 | O[C@H]1CCCN[C@@H]1/C=C/Cn1cnc2c(Cl)c(-c3cccc(Cl)c3)cnc21 [Example 185, (2R,3S)-2-((E)-3-(7-chloro-6-(3-chlorophenyl)-3H-imidazo[4,5-b]pyridin-3-yl)prop-1-en-1-yl)piperidin-3-ol] | ≥ 0.5 µM
18 | Cc1c(Br)cnc2c1ncn2C/C=C/[C@H]1NCCC[C@@H]1O [Example 186, (2R,3S)-2-((E)-3-(6-bromo-7-methyl-3H-imidazo[4,5-b]pyridin-3-yl)prop-1-en-1-yl)piperidin-3-ol] | 0.1 to 0.5 µM
19 | O[C@H]1CCCN[C@@H]1/C=C/Cn1cnc2c(Cl)c(Br)cnc21 [Example 187, (2R,3S)-2-((E)-3-(6-bromo-7-chloro-3H-imidazo[4,5-b]pyridin-3-yl)prop-1l-en-1-yl)piperidin-3-ol] | ≤ 0.1 µM
20 | Cc1c(Cl)cnc2c1ncn2C/C=C/[C@H]1NCCC[C@@H]1O [Example 188, (2R,3S)-2-((E)-3-(6-chloro-7-methyl-3H-imidazo[4,5-b]pyridin-3-yl)prop-1-en-1-yl)piperidin-3-ol] | ≥ 0.5 µM

Row | SMILES | IC50
21 | O[C@H]1CCCN[C@@H]1/C=C/Cn1cnc2c(Cl)c(Cl)cnc21 [Example 189, (2R,3S)-2-((E)-3-(6,7-dichloro-3H-imidazo[4,5-b]pyridin-3-yl)prop-1-en-1-yl)piperidin-3-ol] | 0.1 to 0.5 µM
22 | O[C@H]1CCCN[C@@H]1/C=C/Cn1cnc2ccc(-c3cccc(Cl)c3)cc21 [Example 190, (2R,3S)-2-((E)-3-(6-(3-chlorophenyl)-1H-benzo[d]imidazol-1-yl)prop-1-en-1-yl)piperidin-3-ol] | 0.1 to 0.5 µM
23 | O[C@H]1CCCN[C@@H]1/C=C/Cn1cnc2ccc(-c3cccc(F)c3)cc21 [Example 191, (2R,3S)-2-((E)-3-(6-(3-fluorophenyl)-1H-benzo[d]imidazol-1-yl)prop-1-en-1-yl)piperidin-3-ol] | 0.1 to 0.5 µM
24 | O[C@H]1CCCN[C@@H]1/C=C/Cn1cnc2ccc(-c3cccc(C(F)(F)F)c3)cc21 [Example 192, (2R,3S)-2-((E)-3-(6-(3-(trifluoromethyl)phenyl)-1H-benzo[d]imidazol-1-yl)prop-1-enyl)piperidin-3-ol] | 0.1 to 0.5 µM
25 | Cc1nc2cc(Br)c(F)c(F)c2n1C/C=C/[C@H]1NCCC[C@@H]1O [Example 193, (2R,3S)-2-((E)-3-(5-bromo-6,7-difluoro-2-methyl-1H-benzo[d]imidazol-1-yl)prop-1-en-1-yl)piperidin-3-ol] | ≥ 0.5 µM
26 | O[C@H]1CCCN[C@@H]1/C=C/CN1CCc2ccccc21 [Example 194, (2R,3S)-2-((E)-3-(indolin-1-yl)prop-1-en-1-yl)piperidin-3-ol] | ≥ 0.5 µM
27 | O[C@H]1CCCN[C@@H]1/C=C/CN1CCc2cc(Cl)ccc21 [Example 195, (2R,3S)-2-((E)-3-(5-chloroindolin-1-yl)prop-1-en-1-yl)piperidin-3-ol] | ≥ 0.5 µM
28 | O[C@H]1CCCN[C@@H]1/C=C/Cn1ccc2cccnc21 [Example 196, (2R,3S)-2-((E)-3-(1H-pyrrolo[2,3-b]pyridin-1-yl)prop-1-en-1-yl)piperidin-3-ol] | ≥ 0.5 µM
29 | O[C@H]1CCCN[C@@H]1/C=C/Cn1ccc2ccc(Cl)cc21 [Example 197, (2R,3S)-2-((E)-3-(6-chloro-1H-indol-1-yl)prop-1-en-1-yl)piperidin-3-ol] | ≥ 0.5 µM
30 | O[C@H]1CCCN[C@@H]1/C=C/Cn1ncc2ccc(Cl)cc21 [Example 198, (2R,3S)-2-((E)-3-(6-chloro-1H-indazol-1-yl)prop-1-en-1-yl)piperidin-3-ol] | ≥ 0.5 µM
31 | O[C@H]1CCCN[C@@H]1/C=C/Cn1ccc2c(Cl)ncnc21 [Example 199, (2R,3S)-2-((E)-3-(4-chloro-7H-pyrrolo[2,3-d]pyrimidin-7-yl)prop-1-en-1-yl)piperidin-3-ol] | ≥ 0.5 µM
32 | O[C@H]1CCCN[C@@H]1/C=C/Cn1ncc2cc(Cl)cnc21 [Example 200, (2R,3S)-2-((E)-3-(5-chloro-1H-pyrazolo[3,4-b]pyridin-1-yl)prop-1-en-1-yl)piperidin-3-ol] | ≥ 0.5 µM
33 | Cc1ccc2c(c1)c(C)nn2C/C=C/[C@H]1NCCC[C@@H]1O [Example 201, (2R,3S)-2-((E)-3-(3,5-dimethyl-1H-indazol-1-yl)prop-1-en-1-yl)piperidin-3-ol] | ≥ 0.5 µM
34 | COC(=O)c1cn(C/C=C/[C@H]2NCCC[C@@H]2O)c2c(Br)cccc12 [Example 202, methyl 7-bromo-1-((E)-3-((2R,3S)-3-hydroxypiperidin-2-yl)allyl)-1H-indole-3-carboxylate] | 0.1 to 0.5 µM
35 | O=C(O)c1cn(C/C=C/[C@H]2NCCC[C@@H]2O)c2c(Br)cccc12 [Example 203, 7-bromo-1-((E)-3-((2R,3S)-3-hydroxypiperidin-2-yl)allyl)-1H-indole-3-carboxylic acid] | ≥ 0.5 µM
36 | O=C(O)c1cn(C/C=C/[C@H]2NCCC[C@@H]2O)c2ccc(Br)cc12 [Example 204, 5-bromo-1-((E)-3-((2R,3S)-3-hydroxypiperidin-2-yl)allyl)-1H-indole-3-carboxylic acid] | ≥ 0.5 µM
37 | O=C(O)c1cn(C/C=C/[C@H]2NCCC[C@@H]2O)c2cccc(Cl)c12 [Example 205, 4-chloro-1-((E)-3-((2R,3S)-3-hydroxypiperidin-2-yl)allyl)-1H-indole-3-carboxylic acid] | ≥ 0.5 µM
38 | O=C(O)c1cn(C/C=C/[C@H]2NCCC[C@@H]2O)c2cc(Cl)ccc12 [Example 206, 6-chloro-1-((E)-3-((2R,3S)-3-hydroxypiperidin-2-yl)allyl)-1H-indole-3-carboxylic acid] | ≥ 0.5 µM
39 | O=C(O)c1cn(C/C=C/[C@H]2NCCC[C@@H]2O)c2c(Cl)cccc12 [Example 207, 7-chloro-1-((E)-3-((2R,3S)-3-hydroxypiperidin-2-yl)allyl)-1H-indole-3-carboxylic acid] | ≥ 0.5 µM
40 | O=C(O)c1cn(C/C=C/[C@H]2NCCC[C@@H]2O)c2cc(F)ccc12 [Example 208, 6-fluoro-1-((E)-3-((2R,3S)-3-hydroxypiperidin-2-yl)allyl)-1H-indole-3-carboxylic acid] | ≥ 0.5 µM

Reference: patent publication US10981917B2, “Heterocyclic compound, its preparation method, and pharmaceutical composition comprising the same” (Daewoong Pharmaceutical Co., Ltd., priority 2017, dated 2021)
